Drawing on patent US20260138962A1, “SYNTHESIS OF DERIVATIVES OF SIPH[…] THERAPEUTIC USE THEREOF” (priority 2022, published 2026), this text covers IC50, inhibition and toxicity for 2 compounds.

The subject of data set [1] is SARS-CoV-2 Wuhan isolate (wild type). Description: microbe, parasite or virus in culture. It counts as cell-based. Particulars: Severe acute respiratory syndrome coronavirus 2, Vero C1008.
A further data set concerns MDCK cells. The conditions noted are these: all test concentrations, 50.0 to 3.75 μg/mL.
Data set [2] concerns Influenza A-type virus (strain 108 617). Description: Cytopathic Effect Reduction Assay against Influenza A (CERA-1) in MDCK cells. Format: cell-based. The conditions noted are these: for IC50: calculated with GraphPad Prism.

≈ marks a conversion by molar mass, not a printed value. Where “and” joins values, the source holds several entries; their conditions need not be identical. Identical values can stand only once.

The term IC50 denotes the concentration needed to halve the response being measured. As usually defined, the inhibition is the change of the read-out against control, counted positive when it falls. As to `CC1=C2C[C@@H]3[C@@H](C)C=CC(=O)[C@@]3(C)C[C@@]2(O)OC1=O` [HLS, (4aR,5S,8aS,9aR)-9a-hydroxy-3,5,8a-trimethyl-4a,5,9,9a-tetrahydronaphtho[2,3-b]furan-2,8(4H,8aH)-dione], the IC50 in data set [1] (Wuhan strain, in vitro) is 3.03 µg/mL (≈ 11.6 µM); in data set [2] (Influenza A virus) it was 9.2 µg/mL (≈ 35.1 µM). Further, the inhibition at 0.5 µg/mL in data set [1] (Wuhan, 0.5 μg/ml, Vero E6 cells) came to 25%. Besides, the inhibition at 2 µg/mL in data set [1] (Wuhan, 2 μg/ml, Vero E6 cells) is 50%. In data set [1] (Wuhan, 5 μg/ml, Vero E6 cells), the inhibition at 5 µg/mL was found to be 75%. Moreover, the inhibition at 16 µg/mL in data set [1] (Wuhan, 16 μg/ml, Vero E6 cells) was found to be 100%. Also, the inhibition at 50 µg/mL in data set [1] (Wuhan, 50 μg/ml, Vero E6 cells) stood at 100%. The toxicity result in the data set with MDCK cells is listed as “no toxicity”. Further, in data set [2] (50.0 μg/mL), the inhibition is > 100% and > 123%. For the same compound, the inhibition at 3.75 µg/mL in data set [2] (Influenza A virus, MDCK, 3.75 μg/mL) is > 30%.
For the compound `NC(=O)c1ncn([C@@H]2O[C@H](CO)[C@@H](O)[C@H]2O)n1` [ribavirin, reference compound], the inhibition at 50 µg/mL in data set [2] (Influenza A virus, MDCK, 50.0 μg/mL) was > 105%. Moreover, the IC50 in data set [2] (Influenza A virus) is 2.16 µg/mL (≈ 8.84 µM).
